# Test results as given in article PMC11542830, “3-nitropyridine analogues as novel microtubule-targeting agents” (PLOS ONE, 2024).
# Tests used:
# [1] = test system: NCI-H322M; test: NCI60 5-dose screen, NCI-H322M; assay type: cell-based; details: Homo sapiens, non-small cell lung cancer, Fig 1D, read-out: Log10 GI50 (NCI-H322M) (converted)
# Description: (§1) The screening methodology used in the NCI60 Cell 5-Doses screen is described in detail at https://dtp.cancer.gov/discovery_development/nci-60/methodology.htm. Briefly, cells are seeded in 96 well plates at an appropriate density and incubated for 1 day. After 1 day, some of the plates are processed to determine a time zero density. To the remaining plates, compounds are added over a 5-log M concentration range (1 log dilutions from 10^-4M to 10^-8M). Plates are incubated for two additional days, then fixed and stained with sulforhodamine B. Growth inhibition is calculated relative to cells without drug treatment and the time zero control. The GI50 is the concentration of a compound that causes 50% growth inhibition, relative to the no drug control.
# [2] = test system: microtubule network in A549 cells; test: Immunofluorescence staining of alpha-tubulin in A549 cells; assay type: cell-based, human; details: 4 hours, 250 nM
# Description: Non-small cell lung carcinoma A549 cells were seeded at 50,000 cells/well in an 8-well Nunc™ Lab-Tek™ chambered coverglass slide. After overnight incubation, they were treated with compound or carrier (DMSO) for 4 hours and then fixed with 4% PFA, washed and permeabilized (0.2% Triton X-100 in PBS). Further treatment was performed according to standard immunofluorescence procedures, employing 10% normal goat serum (Thermo Fisher Scientific) as blocking medium and as antibody diluent. Employed antibodies were mouse anti-alpha tubulin (sc-5286, Santa Cruz Biotechnology) at 1:300 dilution and secondary goat anti-mouse IgG conjugated to Alexa Fluor® 488 (A11001, Invitrogen, Thermo Fisher Scientific). Cell nuclei were counterstained with DAPI. Images were collected with a Leica TCS SP5 confocal microscope employing a HCX PL APO 63x (NA 1.2) water immersion objective.
# [3] = test system: HOP-92; test: NCI60 5-dose screen, HOP-92; assay type: cell-based; details: Homo sapiens, non-small cell lung cancer, Fig 1D, read-out: Log10 GI50 (HOP-92) (converted)
# Description: as §1
# [4] = test system: UACC-257; test: NCI60 5-dose screen, UACC-257; assay type: cell-based; details: Homo sapiens, melanoma, Fig 1D, read-out: Log10 GI50 (UACC-257) (converted)
# Description: as §1
# [5] = test system: EKVX; test: NCI60 5-dose screen, EKVX; assay type: cell-based; details: Homo sapiens, non-small cell lung cancer, Fig 1D, read-out: Log10 GI50 (EKVX) (converted)
# Description: as §1
# [6] = test system: NCI-H226; test: NCI60 5-dose screen, NCI-H226; assay type: cell-based; details: Homo sapiens, non-small cell lung cancer, Fig 1D, read-out: Log10 GI50 (NCI-H226) (converted)
# Description: as §1
# [7] = test system: UO-31; test: NCI60 5-dose screen, UO-31; assay type: cell-based; details: Homo sapiens, renal cancer, Fig 1D, read-out: Log10 GI50 (UO-31) (converted)
# Description: as §1
# [8] = test system: ACHN; test: NCI60 5-dose screen, ACHN; assay type: cell-based; details: Homo sapiens, renal cancer, Fig 1D, read-out: Log10 GI50 (ACHN) (converted)
# Description: as §1
# [9] = test system: NCI/ADR-RES; test: NCI60 5-dose screen, NCI/ADR-RES; assay type: cell-based; details: Homo sapiens, ovarian cancer, Fig 1D, read-out: Log10 GI50 (NCI/ADR-RES) (converted)
# Description: as §1
# [10] = test system: SF-539; test: NCI60 5-dose screen, SF-539; assay type: cell-based; details: Homo sapiens, CNS cancer, Fig 1D, read-out: Log10 GI50 (SF-539) (converted)
# Description: as §1
# [11] = test system: HS 578T; test: NCI60 5-dose screen, HS 578T; assay type: cell-based; details: Homo sapiens, breast cancer, Fig 1D, read-out: Log10 GI50 (HS 578T) (converted)
# Description: as §1
# [12] = test system: A549 cells; test: 3-day MTS cell viability assay, A549; assay type: cell-based; details: Homo sapiens, 72 hours, Fig 1C
# Description: (§2) All cancer cell lines (HT-29: colorectal adenocarcinoma, HCT-116: colorectal carcinoma, A549: lung epithelial carcinoma, PC3: prostate adenocarcinoma, Jurkat: acute T-cell leukemia, BC-1: primary effusion lymphoma) and the normal human embryonal lung fibroblast cell line MRC-5 were acquired from the American Type Culture Collection (ATCC). All cell lines were cultured as recommended by the suppliers. Culture media were purchased from Gibco (Thermo Fisher Scientific) and supplemented with 10 to 20% fetal bovine serum (HyClone, GE Healthcare Life Sciences) and 20–25 μg/mL gentamicin (Gibco, Thermo Fisher Scientific). […]
# (§3) Cell viability in cancer cell lines treated with compound was measured in a 3-day MTS cell proliferation assay using the CellTiter 96 AQueous Non-Radioactive Cell Proliferation Assay reagent (Promega) according to the manufacturer’s instructions. Absorbance was read at 490 nm on a SaFire II microplate reader (Tecan). CC50 values were calculated by fitting the obtained MTS cell viability data in GraphPad Prism using a 4-parameter log–based fit for inhibitors. Apoptosis induction and cell death upon compound treatment in PBMC was measured using the Alexa Fluor 488 Annexin V/Dead Cell Apoptosis Kit (Thermo Fisher Scientific), with readout on a FACSCanto II flow cytometer (BD Biosciences). […] The compounds were evaluated in duplo in two independent experiments.
# [13] = test system: SN12C; test: NCI60 5-dose screen, SN12C; assay type: cell-based; details: Homo sapiens, renal cancer, Fig 1D, read-out: Log10 GI50 (SN12C) (converted)
# Description: as §1
# [14] = test system: HCT-116 cells; test: 3-day MTS cell viability assay, HCT-116; assay type: cell-based; details: Homo sapiens, 72 hours, Fig 1C
# Description: as §2, §3
# [15] = test system: OVCAR-5; test: NCI60 5-dose screen, OVCAR-5; assay type: cell-based; details: Homo sapiens, ovarian cancer, Fig 1D, read-out: Log10 GI50 (OVCAR-5) (converted)
# Description: as §1
# [16] = test system: OVCAR-4; test: NCI60 5-dose screen, OVCAR-4; assay type: cell-based; details: Homo sapiens, ovarian cancer, Fig 1D, read-out: Log10 GI50 (OVCAR-4) (converted)
# Description: as §1
# [17] = test system: T-47D; test: NCI60 5-dose screen, T-47D; assay type: cell-based; details: Homo sapiens, T47D; breast cancer; Fig 1D; read-out: Log10 GI50 (T-47D) (converted)
# Description: as §1
Compound,GI50 [1] [nM],effect on microtubule network [2],GI50 [3] [nM],GI50 [4] [µM],GI50 [5] [nM],GI50 [6] [nM],GI50 [7] [nM],GI50 [8] [nM],GI50 [9] [nM],GI50 [10] [nM],GI50 [11] [nM],IC50 [12] [nM],GI50 [13] [nM],IC50 [14] [nM],GI50 [15] [nM],GI50 [16] [nM],GI50 [17] [µM]
"Cc1cc(C)cc(Nc2ccc([N+](=O)[O-])c(NCCN3CCOCC3)n2)c1 [Compound 4AZA2891, 6-(3,5-dimethylanilino)-2-(2-morpholinoethylamino)-3-nitropyridine]",81.3,disintegrate the microtubule network,< 10,> 100,44.7,31.6,1380,12,< 10,< 10,16.6,20.3,70.8,17.4,36.3,< 10,
"Cc1ccnc(Nc2ccc([N+](=O)[O-])c(NCCN3CCOCC3)n2)c1 [Compound 4AZA2996, N^6-(4-methylpyridin-2-yl)-N^2-(2-morpholinoethyl)-3-nitropyridine-2,6-diamine]",46.8,disintegrate the microtubule network,,,,,< 10,< 10,,< 10,< 10,12,47.9,10,,,26.3
